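A five-concentration, 48-hour dose response in 96-well plates underlies each endpoint, interpolated linearly between surrounding concentrations. GI50 is the concentration that inhibits growth by half. TGI marks complete inhibition of growth.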
Legend:
Assay in all cases: inhibition of tumour cell growth, NCI panel, 48 h
[1] = test system: HS 578T breast
[2] = test system: HCT-116 colon
[3] = test system: CAKI-1 renal
[4] = test system: MDA-MB-435
[5] = test system: HL-60(TB) leukemia
[6] = test system: K-562 leukemia
[7] = test system: HCC-2998 colon
[8] = test system: UACC-257 melanoma
[9] = test system: MDA-MB-231 breast
[10] = test system: SW-620 colon
[11] = test system: NCI-H460 lung
[12] = test system: SNB-19 CNS
[13] = test system: EKVX NSCLC
[14] = test system: SF-268 CNS
[15] = test system: RPMI-8226 leukemia
[16] = test system: SF-539 CNS
[17] = test system: SN12C renal
[18] = test system: DU-145 prostate
[19] = test system: T-47D breast
[20] = test system: A498 renal
[21] = test system: ACHN renal
[22] = test system: KM12 colon
[23] = test system: SK-MEL-2 melanoma
[24] = test system: OVCAR-3 ovarian
[25] = test system: SK-MEL-28 melanoma
[26] = test system: UO-31 renal
[27] = test system: M14 melanoma
[28] = test system: UACC-62 melanoma
[29] = test system: NCI/ADR-RES ovarian
[30] = test system: TK-10 renal
[31] = test system: MALME-3M melanoma
[32] = test system: HOP-62 NSCLC
[33] = test system: PC-3 prostate
[34] = test system: SF-295 CNS
[35] = test system: SK-MEL-5 melanoma
[36] = test system: OVCAR-4 ovarian
[37] = test system: HT29 colon
[38] = test system: RXF 393 renal
[39] = test system: IGROV1 ovarian
[40] = test system: MOLT-4 leukemia
[41] = test system: A549 NSCLC
[42] = test system: SK-OV-3 ovarian
[43] = test system: OVCAR-8 ovarian
[44] = test system: COLO 205 colon
[45] = test system: BT-549 breast
[46] = test system: 786-0 renal
[47] = test system: SNB-75 CNS
[48] = test system: OVCAR-5 ovarian
[49] = test system: HCT-15 colon
[50] = test system: MCF7 breast
[51] = test system: NCI-H23 lung
[52] = test system: LOX IMVI melanoma
[53] = test system: NCI-H226 lung
[54] = test system: CCRF-CEM leukemia
[55] = test system: SR leukemia
[56] = test system: U251 CNS
[57] = test system: NCI-H522 lung
[58] = test system: HOP-92 NSCLC

`COc1cccc(C2C3=C(COC3=O)N(CCO)c3cc4c(cc32)OCO4)c1` (stereo unspecified) gave a GI50 [1] of 0.251 µM, a TGI [1] of 45.2 µM and a GI50 [2] of 0.235 µM. The TGI [2] was > 16.1 µM, the GI50 [3] was 0.449 µM and the TGI [3] was > 50 µM. For the same molecule, the GI50 [4] was 0.101 µM, the TGI [4] was 0.356 µM and the GI50 [5] was 0.132 µM. The TGI [5] was 0.352 µM, the GI50 [6] was 0.155 µM and the TGI [6] was > 18.7 µM. It also gave a GI50 [7] of 0.211 µM, a TGI [7] of 1.2 µM and a GI50 [8] of 0.124 µM. The TGI [8] was > 50 µM, the GI50 [9] was 1.28 µM and the TGI [9] was 45.8 µM. For the same molecule, the GI50 [10] was 0.229 µM, the TGI [10] was > 50 µM and the GI50 [11] was 0.189 µM. For the same molecule, the TGI [12] was > 10.6 µM, the GI50 [13] was 1.03 µM and the TGI [13] was > 50 µM. The GI50 [14] was 1.53 µM, the TGI [14] was 49.2 µM and the GI50 [15] was 0.706 µM. The TGI [15] was > 50 µM, the GI50 [16] was 0.36 µM and the TGI [17] was > 50 µM. For the same molecule, the GI50 [18] was 0.388 µM, the GI50 [19] was 0.263 µM and the TGI [19] was > 50 µM. The GI50 [20] was 0.263 µM, the TGI [20] was 5.1 µM and the GI50 [21] was 3.92 µM. For the same molecule, the TGI [21] was > 50 µM, the GI50 [22] was 0.192 µM and the GI50 [23] was 0.142 µM. The TGI [23] was 0.43 µM, the GI50 [24] was 0.121 µM and the TGI [24] was 0.286 µM. For the same molecule, the GI50 [25] was > 50 µM, the TGI [25] was > 50 µM and the GI50 [26] was 0.297 µM. For the same molecule, the TGI [26] was > 50 µM, the GI50 [27] was 0.25 µM and the TGI [27] was > 11 µM. The TGI [28] was > 50 µM, the GI50 [29] was 0.341 µM and the TGI [29] was 2.72 µM. For the same molecule, the GI50 [30] was 0.725 µM, the TGI [31] was > 50 µM and the GI50 [32] was 0.598 µM. For the same molecule, the TGI [32] was > 50 µM, the GI50 [33] was 0.265 µM and the TGI [33] was > 50 µM. For the same molecule, the GI50 [34] was 0.157 µM, the GI50 [35] was 0.177 µM and the TGI [35] was > 50 µM. The GI50 [36] was 2.32 µM, the TGI [36] was > 50 µM and the GI50 [37] was 0.154 µM. The TGI [37] was 1.58 µM, the GI50 [38] was 0.0994 µM and the TGI [38] was 0.352 µM. The GI50 [39] was 0.154 µM, the TGI [39] was 1.64 µM and the GI50 [40] was 0.315 µM. For the same molecule, the TGI [40] was > 16.7 µM, the GI50 [41] was 0.631 µM and the TGI [41] was > 50 µM. For the same molecule, the GI50 [42] was 0.289 µM, the TGI [42] was > 13.8 µM and the GI50 [43] was 1.19 µM. For the same molecule, the TGI [43] was > 50 µM, the GI50 [44] was 0.191 µM and the TGI [44] was 0.854 µM. The GI50 [45] was 0.45 µM, the TGI [45] was > 45.1 µM and the GI50 [46] was 0.37 µM. For the same molecule, the TGI [46] was > 50 µM, the GI50 [47] was 0.151 µM and the TGI [47] was 1.07 µM. For the same molecule, the GI50 [48] was 2.03 µM, the TGI [48] was > 50 µM and the GI50 [49] was 1.02 µM. The TGI [49] was > 50 µM, the GI50 [50] was 0.185 µM and the TGI [50] was > 50 µM. The GI50 [51] was 0.589 µM, the TGI [51] was > 14.2 µM and the GI50 [52] was 0.451 µM. The TGI [52] was > 50 µM, the GI50 [53] was 23.2 µM and the TGI [53] was > 50 µM. The GI50 [54] was 0.274 µM, the TGI [54] was > 50 µM and the GI50 [55] was 0.0795 µM. The TGI [55] was 0.227 µM, the GI50 [56] was 0.269 µM and the TGI [56] was > 50 µM. For the same molecule, the GI50 [57] was 0.051 µM and the TGI [57] was 0.187 µM.

For `COc1ccc(/C=C\c2cc(OC)c(OC)c(OC)c2)cc1OCC(=O)Nc1ccc2nc(C)sc2c1`, the GI50 [58] was 2.38 µM, the TGI [58] was 7.62 µM and the GI50 [1] was 4.32 µM. The TGI [1] was > 100 µM, the GI50 [2] was 3.57 µM and the TGI [2] was > 100 µM. It also gave a GI50 [3] of 2.19 µM, a TGI [3] of 5.85 µM and a GI50 [4] of 2.13 µM. For the same molecule, the TGI [4] was 6.18 µM, the GI50 [6] was 2.19 µM and the TGI [6] was > 100 µM. For the same molecule, the GI50 [7] was 6.9 µM, the TGI [7] was > 100 µM and the GI50 [8] was 1.73 µM. For the same molecule, the TGI [8] was 3.4 µM, the GI50 [9] was 5.45 µM and the TGI [9] was > 100 µM. For the same molecule, the GI50 [10] was 4.7 µM, the TGI [10] was 31.9 µM and the GI50 [11] was 3.36 µM. For the same molecule, the TGI [11] was 33.2 µM, the GI50 [12] was 3.89 µM and the TGI [12] was > 100 µM. For the same molecule, the GI50 [13] was 4.05 µM, the TGI [13] was > 100 µM and the GI50 [14] was 3.61 µM. For the same molecule, the TGI [14] was 36.1 µM, the GI50 [15] was 1.98 µM and the TGI [15] was 4.69 µM. For the same molecule, the GI50 [16] was 2.56 µM, the TGI [16] was 14.6 µM and the GI50 [17] was 3.53 µM. The TGI [17] was > 100 µM, the GI50 [18] was 3.81 µM and the TGI [18] was 29.7 µM. The GI50 [19] was 9.41 µM, the TGI [19] was 33.8 µM and the GI50 [20] was 4.18 µM. The TGI [20] was > 100 µM, the GI50 [21] was 3.12 µM and the TGI [21] was 10.9 µM. For the same molecule, the GI50 [22] was 3.79 µM, the TGI [22] was 14.8 µM and the GI50 [23] was 3.15 µM. It also gave a TGI [23] of 19.1 µM, a GI50 [24] of 6.32 µM and a TGI [24] of 69.2 µM. It also gave a GI50 [25] of 3.22 µM, a TGI [25] of 13.1 µM and a GI50 [26] of 2.41 µM. It also gave a TGI [26] of 7.5 µM, a GI50 [27] of 3.38 µM and a TGI [27] of 10.4 µM. For the same molecule, the GI50 [28] was 2.19 µM, the TGI [28] was 5.16 µM and the GI50 [29] was 2.36 µM. The TGI [29] was 8 µM, the GI50 [30] was 4.21 µM and the TGI [30] was > 100 µM. It also gave a GI50 [31] of 2.84 µM, a TGI [31] of 8.29 µM and a GI50 [32] of 3.09 µM. It also gave a TGI [32] of 8.85 µM, a GI50 [33] of 2.8 µM and a TGI [33] of 8.01 µM. It also gave a GI50 [34] of 2.45 µM, a TGI [34] of 6.85 µM and a GI50 [35] of 1.97 µM. It also gave a TGI [35] of 5.14 µM, a GI50 [36] of 2.64 µM and a TGI [36] of 9.18 µM. The GI50 [37] was 3.31 µM, the TGI [37] was > 100 µM and the GI50 [38] was 5.06 µM. The TGI [38] was > 100 µM, the GI50 [39] was 3.72 µM and the TGI [39] was 15.7 µM. The GI50 [40] was 2.11 µM, the TGI [40] was 5.68 µM and the GI50 [42] was 5.27 µM. For the same molecule, the TGI [42] was 50.4 µM, the GI50 [43] was 2.12 µM and the TGI [43] was 5.41 µM. The GI50 [44] was 4.4 µM, the TGI [44] was 16.2 µM and the GI50 [45] was 3.05 µM. The TGI [45] was 8.53 µM, the GI50 [46] was 7.55 µM and the TGI [46] was > 100 µM. It also gave a GI50 [47] of 1.55 µM, a TGI [47] of 7.37 µM and a GI50 [48] of 6.69 µM. The TGI [48] was > 100 µM, the GI50 [49] was 2.8 µM and the TGI [49] was 10.4 µM. For the same molecule, the GI50 [50] was 0.748 µM, the TGI [50] was 12.9 µM and the GI50 [51] was 2.53 µM. It also gave a TGI [51] of 7.95 µM, a GI50 [52] of 2.64 µM and a TGI [52] of 9 µM. The GI50 [53] was 2.75 µM, the TGI [53] was 12 µM and the GI50 [54] was 3.41 µM. For the same molecule, the TGI [54] was > 100 µM, the GI50 [55] was 2.93 µM and the TGI [55] was > 100 µM. For the same molecule, the GI50 [56] was 3.59 µM, the TGI [56] was > 100 µM and the GI50 [57] was 2.28 µM. For the same molecule, the TGI [57] was 7.06 µM.
